Data from patent publication US20240335381A1, “Transdermal Microemulsion Delivery Systems for Alcohol-Soluble Species Including Nonderivatized Hormones” (Quicksilver Scientific, Inc., priority 2021, published 2024).
Converted amounts (≈) assume the structure as drawn. Where two headings read alike, the source gives them in different places.

Legend:
[1] = Solubility in ethanol and in MCT oil; format: physicochemical
Source text: An alcohol-soluble species is a species that is insoluble in water and has a greater solubility in ethanol than in medium chain triglyceride (MCT) oils. […] Alcohol-soluble species are preferably pharmacologically active, more preferably are a drug or a supplement, and neither include nor are water. Thus, liquids and solids may exist that technically are soluble in alcohol, but because they also are soluble in water or more or equivalently soluble in MCT oils than in ethanol are not “alcohol-soluble species”.
Solubilized means that the alcohol-soluble species to be delivered is in the solution of the droplet. […] Thus, if either average particle diameters greater than 200 nm or precipitated crystals visible to the naked eye form, the alcohol-soluble species is not solubilized in the solution of the droplet. If an alcohol-soluble species is not solubilized in the solution, it is insoluble in the solution. In many respects, solubility may be thought of as a concentration dependent continuum. For example, the following descriptive terms may be used to express solubility of a solute in a solvent (grams solid/mL of solvent) at 25 degrees Celsius: […]

[2] = cited from earlier work

Row | SMILES | solubility level in MCT oil ([1]; MCT oil) | solubility level in ethanol ([1]; ethanol) | solubility ([1]; ethanol, organic solvent or mixture, read-out: solubility in ethanol) [mg/mL] | solubility ([1]; medium chain triglyceride (MCT) oil, oil or lipid, MCT oil, read-out: solubility in MCT oil) [mg/mL] | time within which the remainder is metabolized from the blood ([2]; after introduction) | share metabolized from the blood ([2]; within the first hour of introduction)
1 | C[C@]12CC[C@H](O)CC1=CC[C@@H]1[C@@H]2CC[C@]2(C)C(=O)CC[C@@H]12 [DHEA, dehydroepiandrosterone (3-beta-hydroxyandrosteron-5-en-17-one)] | sparingly soluble | freely soluble | ~150 (≈ 520 mM) | ~10 (≈ 34.7 mM) | – | –
2 | C[C@]12CC[C@H]3[C@@H](CCC4=CC(=O)CC[C@@]43C)[C@@H]1CC[C@@H]2O [testosterone] | – | – | – | – | three | about 90%
